In US20250152585A1, “PHARMACEUTICAL COMPOUND” (Duke Street Bio Limited, priority 2022, published 2025):
Read-outs that look alike come from different tables or passages of the source.

Tests used:
[1] = biological target: T1, full length N-terminally FLAG-tagged PARP1 (Homo sapiens, UniProt P09874); assay: PARP1 probe displacement HTRF assay; conditions: for Selectivity: PARP1 over PARP2, ratio Kd (PARP2)/Kd (PARP1); for Kd: binned Kd
[2] = biological target: T1, full length N-terminally FLAG-tagged PARP1; assay: PARP1 biochemical DELFIA assay (auto-PARylation); set-up: recombinant full length human N-terminally FLAG-tagged PARP1
[3] = biological target: T2, N-terminally FLAG-tagged PARP2 (amino acids 1-583) (Homo sapiens, UniProt Q9UGN5); assay: PARP2 probe displacement HTRF assay; assay type: binding; conditions: binned Kd
T2 construct: N-terminally FLAG-tagged PARP2 (amino acids 1-583)
Procedure: Data analysis was performed identical as for PARP1.

[4] = read-out: PARP1 HTRF, PARP1 probe displacement HTRF
[5] = binned IC50, PARP1 biochemical DELFIA assay
[6] = PARP1 HTRF, PARP1 probe displacement HTRF
[7] = read-out: PARP1 HTRF, probe displacement HTRF
[8] = binned IC50, biochemical auto-PARylation assay
[9] = PARP1 HTRF, probe displacement HTRF

T2 sequence (Q9UGN5 whole entry, the tested form may be a part): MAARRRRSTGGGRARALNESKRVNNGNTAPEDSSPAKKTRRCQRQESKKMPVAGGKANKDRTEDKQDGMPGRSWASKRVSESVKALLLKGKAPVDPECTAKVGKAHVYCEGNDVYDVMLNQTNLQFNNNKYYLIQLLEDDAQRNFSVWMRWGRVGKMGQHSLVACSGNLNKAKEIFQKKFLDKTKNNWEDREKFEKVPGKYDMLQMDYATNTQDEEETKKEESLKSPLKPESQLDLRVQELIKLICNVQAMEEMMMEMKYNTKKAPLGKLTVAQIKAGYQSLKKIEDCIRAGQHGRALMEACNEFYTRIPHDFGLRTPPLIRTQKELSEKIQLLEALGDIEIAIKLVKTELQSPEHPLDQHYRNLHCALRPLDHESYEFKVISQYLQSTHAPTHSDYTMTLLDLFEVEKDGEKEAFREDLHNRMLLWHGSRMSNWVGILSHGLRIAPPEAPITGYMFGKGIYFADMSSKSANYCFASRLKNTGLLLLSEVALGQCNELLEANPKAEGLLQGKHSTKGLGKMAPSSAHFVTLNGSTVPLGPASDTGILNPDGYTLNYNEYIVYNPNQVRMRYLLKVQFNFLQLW
T1 sequence (P09874 whole entry): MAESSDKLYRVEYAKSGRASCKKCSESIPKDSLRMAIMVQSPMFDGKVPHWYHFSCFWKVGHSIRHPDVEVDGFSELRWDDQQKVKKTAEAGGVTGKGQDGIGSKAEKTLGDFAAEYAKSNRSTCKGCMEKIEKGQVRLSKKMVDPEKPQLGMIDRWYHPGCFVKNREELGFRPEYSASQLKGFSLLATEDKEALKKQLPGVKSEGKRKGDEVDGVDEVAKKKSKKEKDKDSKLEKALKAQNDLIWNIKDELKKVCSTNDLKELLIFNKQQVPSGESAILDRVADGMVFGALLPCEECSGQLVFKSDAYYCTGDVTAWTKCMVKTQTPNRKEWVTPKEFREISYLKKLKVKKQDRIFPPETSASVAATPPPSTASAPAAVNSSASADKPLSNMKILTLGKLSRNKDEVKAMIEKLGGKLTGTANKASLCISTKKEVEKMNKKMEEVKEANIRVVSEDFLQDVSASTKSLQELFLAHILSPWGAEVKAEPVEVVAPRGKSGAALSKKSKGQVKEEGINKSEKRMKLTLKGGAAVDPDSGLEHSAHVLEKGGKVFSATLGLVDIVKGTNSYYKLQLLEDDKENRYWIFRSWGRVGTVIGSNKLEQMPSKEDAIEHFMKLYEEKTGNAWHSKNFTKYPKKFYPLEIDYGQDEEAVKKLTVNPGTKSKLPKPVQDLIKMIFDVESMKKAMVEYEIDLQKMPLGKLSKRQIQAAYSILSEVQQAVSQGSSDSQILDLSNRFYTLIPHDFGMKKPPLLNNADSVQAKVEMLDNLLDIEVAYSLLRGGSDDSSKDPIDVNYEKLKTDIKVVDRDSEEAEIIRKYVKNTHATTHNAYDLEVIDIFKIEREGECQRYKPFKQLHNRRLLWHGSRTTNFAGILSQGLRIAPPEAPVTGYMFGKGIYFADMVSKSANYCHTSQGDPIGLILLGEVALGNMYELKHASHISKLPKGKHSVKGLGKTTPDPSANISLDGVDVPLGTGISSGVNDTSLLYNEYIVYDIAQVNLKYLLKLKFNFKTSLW

Row | Compound | Selectivity ([1]; probe displacement HTRF) | Kd [1, 4] [µM] | IC50 [2, 5] [µM] | Kd ([3]; PARP2 probe displacement HTRF) [µM] | Kd [1, 6] [µM] | Kd [1, 7] [µM] | IC50 [2, 8] [µM] | Kd ([3]; probe displacement HTRF) [µM] | Kd [1, 9] [µM]
1 | CNC(=O)c1ccc(N2CCC(N3CCC(c4nc5c(c(=O)[nH]4)CCCC5)C3)CC2)cn1 (single isomer, unassigned) [Compound 155a] | + (+ indicates a value of 10 to less than 50) | 0.01 to 0.1 | 0.01 to 0.1 | 0.1 to 1 |  |  |  |  | 
2 | CNC(=O)c1ccc(N2CCC(CN3CCC(c4nc5c(Cl)cccc5c(=O)[nH]4)CC3)CC2)cn1 [Compound 40, 5-(4-((4-(8-chloro-4-oxo-3,4-dihydroquinazolin-2-yl)piperidin-1-yl)methyl)piperidin-1-yl)-N-methylpicolinamide] | ++ (++ indicates a value of 50 to less than 100) |  | < 0.01 | 0.1 to 1 | < 0.01 |  |  |  | 
3 | CCc1ccc(C2CCN(C3CCN(c4ccc(C#N)cc4Cl)CC3)C2)[nH]c1=O (single isomer, unassigned) [Compound 377a] | +++ (+++ indicate a value of at least 100) |  |  |  |  | 0.01 to 0.1 | 0.01 to 0.1 | > 10 | 
4 | CNC(=O)c1ccc(N2CCC(N3CCC(c4cc5ncc(F)cc5c(=O)[nH]4)C3)CC2)cn1 (single isomer, unassigned) [Compound 315b] | +++ (+++ indicate a value of at least 100) |  |  |  |  | < 0.01 | < 0.01 | 0.1 to 1 | 
5 | CNC(=O)c1ccc(N2CCC(N3CCC(c4nc5c(Cl)cccc5c(=O)[nH]4)C3)CC2)cn1 (single isomer, unassigned) [Compound 52a, 5-(4-(3-(8-chloro-4-oxo-3,4-dihydroquinazolin-2-yl)pyrrolidin-1-yl)piperidin-1-yl)-N-methylpicolinamide] | − (− indicates a value of less than 10) |  | 0.01 to 0.1 | 0.1 to 1 | 0.01 to 0.1 |  |  |  | 
6 | CCc1cnc(C2CCN(C(=O)C3CCN(c4ccc(C(=O)NC)nc4)CC3)CC2)[nH]c1=O [Compound 41] | + (+ indicates a value of 10 to less than 50) |  | 0.1 to 1 | > 10 | 0.1 to 1 |  |  |  | 
7 | CNC(=O)c1ccc(N2CCC(N3CCCC(c4nc5ccccc5c(=O)[nH]4)C3)CC2)c(C)n1 (single isomer, unassigned) [Compound 131b] | +++ (+++ indicate a value of at least 100) | < 0.01 | < 0.01 | > 10 |  |  |  |  | 
8 | O=C(NCC(F)F)c1ccc(N2CCC(N3CCC(c4cc5cccc(F)c5c(=O)[nH]4)C3)CC2)c(F)n1 (single isomer, unassigned) [Compound 390a] | +++ (+++ indicate a value of at least 100) |  |  |  |  | < 0.01 | < 0.01 | 0.1 to 1 | 
9 | CNC(=O)c1ccc(N2CCC(N3CCCC(c4nc5onc(C)c5c(=O)[nH]4)C3)CC2)cn1 (single isomer, unassigned) [Compound 159b] | + (+ indicates a value of 10 to less than 50) | 0.1 to 1 | 0.1 to 1 | > 10 |  |  |  |  | 
10 | CNC(=O)c1ccc(N2CCC(CN3CCCC(c4nc5ccccc5c(=O)[nH]4)C3)CC2)cn1 (single isomer, unassigned) [Compound 9b] | − (− indicates a value of less than 10) | 0.01 to 0.1 | 0.01 to 0.1 | 0.1 to 1 |  |  |  |  | 
11 | CNC(=O)c1ccc(N2CCC(N3CCC(c4nc5cccc(Cl)c5c(=O)[nH]4)C3)CC2)cn1 (single isomer, unassigned) [Compound 85b] | ++ (++ indicates a value of 50 to less than 100) | < 0.01 | < 0.01 | 0.01 to 0.1 |  |  |  |  | 
12 | CNC(=O)c1ccc(N2CCC(N3CC4(c5nc6ccc(F)cc6c(=O)[nH]5)CC3C4)CC2)cn1 [Compound 238] | +++ (+++ indicate a value of at least 100) |  |  |  |  |  | < 0.01 | 0.1 to 1 | < 0.01
13 | CNC(=O)c1ccc(N2CCC(N3CCC(c4ccc(Cl)c(=O)[nH]4)C3)CC2)cn1 (single isomer, unassigned) [Compound 201a] | + (+ indicates a value of 10 to less than 50) | 0.1 to 1 | 0.1 to 1 | > 10 |  |  |  |  | 
14 | CNC(=O)c1ccc(N2CCC(C(=O)N3CCC(c4nc5ccccc5c(=O)[nH]4)CC3)CC2)cn1 [Compound 36] | +++ (+++ indicate a value of at least 100) |  | < 0.01 | > 10 | < 0.01 |  |  |  | 
15 | CNC(=O)c1ccc(N2CCC(N3CCCC(c4nc5ncccc5c(=O)[nH]4)C3)CC2)cn1 (single isomer, unassigned) [Compound 98a] | +++ (+++ indicate a value of at least 100) | 0.01 to 0.1 | 0.01 to 0.1 | > 10 |  |  |  |  | 
16 | CNC(=O)c1ccc(N2CCC(N3CCCC(c4ccc(CC(F)(F)F)c(=O)[nH]4)C3)CC2)cn1 (single isomer, unassigned) [Compound 169a] | − (− indicates a value of less than 10) | > 10 | 1 to 10 | > 10 |  |  |  |  | 
17 | CCc1ccc(C2CCN(C3CCN(c4ccc(C(=O)NC)nc4)CC3)C2)[nH]c1=O (single isomer, unassigned) [Compound 72a] | +++ (+++ indicate a value of at least 100) | 0.01 to 0.1 | 0.01 to 0.1 | 1 to 10 |  |  |  |  | 
18 | CNC(=O)c1ccc(N2CCC(N3CCC(c4nc5ccc(C(F)(F)F)cc5c(=O)[nH]4)C3)CC2)cn1 (single isomer, unassigned) [Compound 161b] | +++ (+++ indicate a value of at least 100) | < 0.01 | < 0.01 | 1 to 10 |  |  |  |  | 
19 | CNC(=O)c1ccc(N2CCC(N3CCC(c4nc5sc6c(c5c(=O)[nH]4)CCC6)C3)CC2)cn1 (single isomer, unassigned) [Compound 189a] | − (− indicates a value of less than 10) | 0.01 to 0.1 | 0.01 to 0.1 | 0.1 to 1 |  |  |  |  | 
20 | CC(=O)Nc1ccc(N2CCC(N3CCC(c4cc5ccccc5c(=O)[nH]4)C3)CC2)cc1 (single isomer, unassigned) [Compound 289a] | − (− indicates a value of less than 10) |  |  |  |  | 0.1 to 1 | 0.1 to 1 | 1 to 10 | 
21 | CNC(=O)c1ccc(N2CC(N3CCC(Cc4nc5ccccc5c(=O)[nH]4)CC3)C2)cn1 [Compound 48] | +++ (+++ indicate a value of at least 100) |  | < 0.01 | 0.1 to 1 | < 0.01 |  |  |  | 
22 | CNC(=O)c1ccc(N2CCC(N3CCC(c4nc5sc(C)c(C)c5c(=O)[nH]4)C3)CC2)cn1 (single isomer, unassigned) [Compound 221b] | ++ (++ indicates a value of 50 to less than 100) |  |  |  |  | < 0.01 | < 0.01 | 0.01 to 0.1 | 
23 | CNC(=O)c1ccc(N2CCC(N3CCC(c4nc5onc(C(F)(F)F)c5c(=O)[nH]4)C3)CC2)cn1 (single isomer, unassigned) [Compound 176b] | ++ (++ indicates a value of 50 to less than 100) | 0.1 to 1 | 0.01 to 0.1 | > 10 |  |  |  |  | 
24 | CNC(=O)c1ccc(N2CCC(CN3CCC(c4nc5ccccc5c(=O)[nH]4)CC3)CC2)cn1 [Compound 8, N-methyl-5-(4-((4-(4-oxo-3,4-dihydroquinazolin-2-yl)piperidin-1-yl)methyl)piperidin-1-yl)picolinamide] | +++ (+++ indicate a value of at least 100) |  | < 0.01 | > 10 | < 0.01 |  |  |  | 
25 | CCc1ccc(C2CCN(C3CCN(c4ccc(C#N)nc4)CC3)C2)[nH]c1=O (single isomer, unassigned) [Compound 326a] | + (+ indicates a value of 10 to less than 50) |  |  |  |  | 0.1 to 1 | 0.1 to 1 | 1 to 10 | 
26 | CC(=O)NC(=O)c1ccc(N2CCC(N3CCC(c4cc5ccccc5c(=O)[nH]4)C3)CC2)cc1 (single isomer, unassigned) [Compound 341a] | +++ (+++ indicate a value of at least 100) |  |  |  |  | < 0.01 | < 0.01 | 0.1 to 1 | 
27 | CNC(=O)c1ccc(N2CCC(N3CC4(c5nc6ncccc6c(=O)[nH]5)CC3C4)CC2)c(F)n1 [Compound 303] | +++ (+++ indicate a value of at least 100) |  |  |  |  |  | < 0.01 | > 10 | < 0.01
